Results on eleven compounds are retold here after patent publication US10004701B2, “Methods and compositions for treating infection” (UNIVERSITY OF ROCHESTER, priority 2012, dated 2018).

Where a name gives a salt, the structure may show the parent alone. Read-outs that look alike come from different tables or passages of the source.

Holding throughout (test): AK assay 384-well format, Prestwick library screening
In test [1] the test system is P. aeruginosa. It is filed as cell-based, Pseudomonas aeruginosa. To be noted: Pseudomonas aeruginosa, 3 h, 50 μM final drug concentration.
Test [2] relates to E. faecium. It is filed as cell-based, Enterococcus faecium. To be noted: Enterococcus faecium, 3 h, 50 μM final drug concentration.
For test [3], the system named is A. baumannii strain 98-37-09. It is filed as cell-based, Acinetobacter baumannii. To be noted: Acinetobacter baumannii, 983709, 3 h, 50 μM final drug concentration.
For test [4], the system named is K. pneumoniae. Type of test: cell-based, Klebsiella pneumoniae. To be noted: Klebsiella pneumoniae, 3 h, 50 μM final drug concentration.
The subject of test [5] is E. cloacae. It is filed as cell-based, Enterobacter cloacae. To be noted: Enterobacter cloacae, 3 h, 50 μM final drug concentration.
For test [6], the system named is S. aureus strain USA300-0114. It is filed as cell-based, Staphylococcus aureus. To be noted: Staphylococcus aureus, USA300, 3 h, 50 μM final drug concentration.
The subject of test [7] is E. coli. It is filed as cell-based, Escherichia coli. To be noted: Escherichia coli, 3 h, 50 μM final drug concentration.
Where [8] appears, read: planktonic P. aeruginosa, 384-well, cutoff for positive-scoring molecules 3-fold increase, read-out: AK-based Prestwick Library Screening Results: P. aeruginosa (increase in extracellular AK activity).
Where [9] appears, read: planktonic E. faecium, 384-well, cutoff for positive-scoring molecules 3-fold increase, read-out: AK-based Prestwick Library Screening Results: E. faecium (increase in extracellular AK activity).
Where [10] appears, read: planktonic A. baumannii, 384-well, cutoff for positive-scoring molecules 3-fold increase, read-out: AK-based Prestwick Library Screening Results: A. baumannii (increase in extracellular AK activity).
Where [11] appears, read: planktonic K. pneumoniae, 384-well, cutoff for positive-scoring molecules 3-fold increase, read-out: AK-based Prestwick Library Screening Results: K. pneumoniae (increase in extracellular AK activity).
[12] abbreviates: planktonic E. cloacae, 384-well, cutoff for positive-scoring molecules 3-fold increase, read-out: AK-based Prestwick Library Screening Results: E. cloacae (increase in extracellular AK activity).
[13] abbreviates: planktonic S. aureus, 384-well, cutoff for positive-scoring molecules 3-fold increase, read-out: AK-based Prestwick Library Screening Results: S. aureus (increase in extracellular AK activity).
The mark [14] stands for this setting: planktonic E. coli, 384-well, cutoff for positive-scoring molecules 3-fold increase, read-out: AK-based Prestwick Library Screening Results: E. coli (increase in extracellular AK activity).
The mark [15] stands for this setting: planktonic, cutoff for positive-scoring molecules 3-fold increase, read-out: AK-based Prestwick Library Screening Results, P. aeruginosa (fold increase in extracellular AK activity).
Setting [16] is: planktonic, cutoff for positive-scoring molecules 3-fold increase, read-out: AK-based Prestwick Library Screening Results, E. faecium (fold increase in extracellular AK activity).
Setting [17] is: planktonic, cutoff for positive-scoring molecules 3-fold increase, read-out: AK-based Prestwick Library Screening Results, A. baumannii (fold increase in extracellular AK activity).
Where [18] appears, read: planktonic, cutoff for positive-scoring molecules 3-fold increase, read-out: AK-based Prestwick Library Screening Results, K. pneumoniae (fold increase in extracellular AK activity).
Where [19] appears, read: planktonic, cutoff for positive-scoring molecules 3-fold increase, read-out: AK-based Prestwick Library Screening Results, E. cloacae (fold increase in extracellular AK activity).
Setting [20] is: planktonic, cutoff for positive-scoring molecules 3-fold increase, read-out: AK-based Prestwick Library Screening Results, S. aureus (fold increase in extracellular AK activity).
Setting [21] is: planktonic, cutoff for positive-scoring molecules 3-fold increase, read-out: AK-based Prestwick Library Screening Results, E. coli (fold increase in extracellular AK activity).
[22] abbreviates: planktonic, cutoff for positive 3-fold increase, read-out: AK-based Prestwick Library Screening Results, P. aeruginosa (fold increase in extracellular AK activity).
Setting [23] is: planktonic, cutoff for positive 3-fold increase, read-out: AK-based Prestwick Library Screening Results, E. faecium (fold increase in extracellular AK activity).
Where [24] appears, read: planktonic, cutoff for positive 3-fold increase, read-out: AK-based Prestwick Library Screening Results, A. baumannii (fold increase in extracellular AK activity).
The mark [25] stands for this setting: planktonic, cutoff for positive 3-fold increase, read-out: AK-based Prestwick Library Screening Results, K. pneumoniae (fold increase in extracellular AK activity).
The mark [26] stands for this setting: planktonic, cutoff for positive 3-fold increase, read-out: AK-based Prestwick Library Screening Results, E. cloacae (fold increase in extracellular AK activity).
Setting [27] is: planktonic, cutoff for positive 3-fold increase, read-out: AK-based Prestwick Library Screening Results, S. aureus (fold increase in extracellular AK activity).
Where [28] appears, read: planktonic, cutoff for positive 3-fold increase, read-out: AK-based Prestwick Library Screening Results, E. coli (fold increase in extracellular AK activity).

Take `CC(C)[C@@]1(NC(=O)[C@@H]2C[C@@H]3c4cccc5[nH]cc(c45)C[C@H]3N(C)C2)O[C@@]2(O)[C@@H]3CCCN3C(=O)[C@H](Cc3ccccc3)N2C1=O` [Dihydroergocristine mesylate]: the fold induction at 50 µM in test [1] (setting [8]) worked out at 0.6; in test [2] (setting [9]), 0.9; in test [3] (setting [10]), 0.7; in test [4] (setting [11]), 0.6; in test [5] (setting [12]) it was 0.6; in test [6] (setting [13]), 0.5. In addition, the fold induction at 50 µM in test [7] (setting [14]) is 0.7.

In the case of `CN[C@@H]1[C@H](O[C@H]2[C@H](O[C@H]3[C@H](O)[C@@H](O)[C@H](NC(=N)N)[C@@H](O)[C@@H]3NC(=N)N)O[C@@H](C)[C@]2(O)CO)O[C@@H](CO)[C@H](O)[C@H]1O` [Dihydrostreptomycin sulfate], the fold induction at 50 µM in test [1] (setting [8]) was 0.9; in test [2] (setting [9]), 1; in test [3] (setting [10]), 1.2; in test [4] (setting [11]) it was 0.7; in test [5] (setting [12]), 1.3; in test [6] (setting [13]), 1.2. Moreover, the fold induction at 50 µM in test [7] (setting [14]) came out at 1.2.

As to `COc1cc(C(=O)OCCCN2CCCN(CCCOC(=O)c3cc(OC)c(OC)c(OC)c3)CC2)cc(OC)c1OC` [Dilazep dihydrochloride], the fold induction at 50 µM was 1.3 in test [1] (setting [8]); 1.1 in test [2] (setting [9]); 1.4 in test [3] (setting [10]); 1.4 in test [4] (setting [11]); 1.1 in test [5] (setting [12]); 1.2 in test [6] (setting [13]). Also, in test [7] (setting [14]), the fold induction at 50 µM is 1.5.

Turning to `CN(C(=O)C(Cl)Cl)c1ccc(OC(=O)c2ccco2)cc1` [Diloxanide furoate], the fold induction at 50 µM was found to be 1 in test [1] (setting [15]); 0.8 in test [2] (setting [16]); 0.9 in test [3] (setting [17]); 0.7 in test [4] (setting [18]); 1.2 in test [5] (setting [19]); 0.7 in test [6] (setting [20]). Further, in test [7] (setting [21]), the fold induction at 50 µM was determined as 1.

Take `COc1ccc([C@@H]2Sc3ccccc3N(CCN(C)C)C(=O)[C@@H]2OC(C)=O)cc1` [Diltiazem hydrochloride]: the fold induction at 50 µM in test [1] (setting [8]) came to 0.9; in test [2] (setting [9]) it was 0.9; in test [3] (setting [10]), 1; in test [4] (setting [11]), 1; in test [5] (setting [12]), 1.5; in test [6] (setting [13]) it was 0.8. For the same compound, in test [7] (setting [14]), the fold induction at 50 µM is 1.

Turning to `CN(C)CCCSC(=N)N` [Dimaprit dihydrochloride], the fold induction at 50 µM amounted to 0.8 in test [1] (planktonic P. aeruginosa, positive cutoff 3-fold increase, read-out: AK-based Prestwick library screening result, P. aeruginosa (fold increase in extracellular AK activity)); 0.9 in test [2] (planktonic E. faecium, positive cutoff 3-fold increase, read-out: AK-based Prestwick library screening result, E. faecium (fold increase in extracellular AK activity)); 0.8 in test [3] (planktonic A. baumannii, positive cutoff 3-fold increase, read-out: AK-based Prestwick library screening result, A. baumannii (fold increase in extracellular AK activity)); 0.7 in test [4] (planktonic K. pneumoniae, positive cutoff 3-fold increase, read-out: AK-based Prestwick library screening result, K. pneumoniae (fold increase in extracellular AK activity)); 1 in test [5] (planktonic E. cloacae, positive cutoff 3-fold increase, read-out: AK-based Prestwick library screening result, E. cloacae (fold increase in extracellular AK activity)); 0.7 in test [6] (planktonic S. aureus, positive cutoff 3-fold increase, read-out: AK-based Prestwick library screening result, S. aureus (fold increase in extracellular AK activity)). For the same compound, the fold induction at 50 µM in test [7] (planktonic E. coli, positive cutoff 3-fold increase, read-out: AK-based Prestwick library screening result, E. coli (fold increase in extracellular AK activity)) came to 0.8.

Take `CC1(C)OC(=O)NC1=O` [Dimethadione]: the fold induction at 50 µM came out at 0.8 in test [1] (setting [15]); 0.9 in test [2] (setting [16]); 0.8 in test [3] (setting [17]); 0.8 in test [4] (setting [18]); 1 in test [5] (setting [19]); 0.7 in test [6] (setting [20]). Moreover, the fold induction at 50 µM in test [7] (setting [21]) came to 0.9.

As for `CCCCc1cc2ccccc2c(OCCN(C)C)n1` [Dimethisoquin hydrochloride], the fold induction at 50 µM in test [1] (setting [22]) was determined as 1.2; in test [2] (setting [23]) it was 1; in test [3] (setting [24]), 1.5; in test [4] (setting [25]) it was 1.2; in test [5] (setting [26]), 1.5; in test [6] (setting [27]), 1.3. Besides, the fold induction at 50 µM in test [7] (setting [28]) was found to be 1.3.

As for `CCCCC[C@H](O)/C=C/[C@@H]1[C@@H](C/C=C\CCCC(=O)O)[C@@H](O)C[C@H]1O` [Dinoprost trometamol], the fold induction at 50 µM in test [1] (setting [22]) turned out to be 1; in test [2] (setting [23]), 1; in test [3] (setting [24]) it was 1.2; in test [4] (setting [25]), 1; in test [5] (setting [26]) it was 1.1; in test [6] (setting [27]), 1.4. In test [7] (setting [28]), the fold induction at 50 µM turned out to be 1.

For the compound `COc1ccc(C(=O)c2ccccc2O)c(O)c1` [Dioxybenzone], the fold induction at 50 µM was determined as 0.7 in test [1] (setting [15]); 0.8 in test [2] (setting [16]); 0.6 in test [3] (setting [17]); 0.7 in test [4] (setting [18]); 1 in test [5] (setting [19]); 0.5 in test [6] (setting [20]). Moreover, in test [7] (setting [21]), the fold induction at 50 µM was found to be 0.8.

For the compound `O=C(Nc1ccccc1)OCC(CN1CCCCC1)OC(=O)Nc1ccccc1` (centres unmarked) [Diperodon hydrochloride], the fold induction at 50 µM in test [1] (setting [8]) came to 1.1; in test [2] (setting [9]), 1.1; in test [3] (setting [10]), 1.1; in test [4] (setting [11]), 0.9; in test [5] (setting [12]) it was 1.4; in test [6] (setting [13]), 1.2. In addition, the fold induction at 50 µM in test [7] (setting [14]) was determined as 1.4.
